Experimental data reported in US9260376B2, “Compounds for use in the treatment of immune related inflammatory disease” (VENANTIUS LIMITED, priority 2011, dated 2016).
Marks after values point to notes of the source that are not given here.

What was measured:
[1] = Partition coefficient (log P), HPLC method; type: physicochemical; settings: reverse phase C18 HPLC; for Acid Log10 POW: acidic pH; for Basic Log10 POW: alkaline pH; for Neutral Log10 POW: neutral pH
Source text: The partition coefficient of compound 5 and related analogous compounds was investigated using the HPLC method (reverse phase C18 HPLC column) at neutral, acidic and alkaline pH.

5% DSS murine colitis [2] = experiment: Acute murine 5% DSS colitis model, Experiment 1; type: in vivo; settings: for DAI on the day of autopsy versus vehicle controls: compound 6 3-30 mg/kg at each dose level; for colon pathology (histology scores) relative to vehicle: compound 6 at both 10 and 30 mg/Kg, prednisolone 5 mg/Kg; for colon IL1β level / colon IL6 level / colon TNFα level: day 7; for colon IL1β level: DSS-elevated 0.744±0.076 ng/mg; for colon IL6 level: DSS-elevated 1.057±0.1784 ng/mg; for colon TNFα level: DSS-elevated 1.478±0.378 ng/mg; for DAI at day 7: 10 mg/kg daily for 7 days, vehicle 9.3±0.51
Source text: The study is widely used as a model for studying the pathogenesis of UC and also for screening new therapeutic interventions for the treatment of UC.
In these studies, an acute colitis model was used, with 5% DSS administered in the drinking water of BALB/c mice. This dosage regime induces severe acute colitis, by days 7-8 mice had overt rectal bleeding and marked weight loss; unless sacrificed beforehand, all mice would have died by days 10-12.
Specific Pathogen-Free BALB/c mice, 6-8 weeks of age, were obtained from a commercial supplier (Harlan UK). Mice were fed irradiated diet and housed in individually ventilated cages (Tecniplast UK) under positive pressure.
DSS (5%) was dissolved in drinking water. Compounds were administered orally at a dose of 10 mg/kg or 30 mg/kg on days 0-7, and mice were culled on day 8 or day 9, depending on the severity of the disease. The mice were checked each day for morbidity and the weight of individual mice was recorded. Induction of colitis was determined upon autopsy, length of colon and histology. Colons were recovered and stored at −20° C. for immunological analysis. All of the compounds and experimental groups are randomly alphabetically labelled. Throughout experiments all data recording was performed in a blind manner. The codes on boxes/groups were not broken until after the data was analysed i.e. boxes labelled A, B, C etc were identified as untreated, DSS-treated, or DSS+compound-treated.
To quantify the extent of colitis, a disease activity index (DAI) was determined based on weight loss, faecal blood and stool consistency. A score was given for each parameter, with the sum of the scores used as the DAI. For each treatment group n=8.
All compounds were prepared for oral gavage (0.1 mL per os (p.o.) per 10 g body weight) as a suspension in 0.5% carboxymethyl cellulose/2% Tween 80, at a dose of 3-30 mg/Kg.

[3] = system: chronic colitis in IL10-/- mice; experiment: Chronic IL10-/- colitis model; type: in vivo, IL10-/- BALB/c strain mice; settings: 300 mg/kg/week oral, MWF
Method: FIG. 15: Is a group showing weight loss in IL10^−−/−− mice treated with vehicle or compound 6. Mice were administered compound 6 (300 mg/kg/week) or vehicle orally on a Monday/Wednesday/Friday (MWF) dosing schedule. Mice were ˜4 weeks of age at start of experiment and were treated for 9 weeks. Mice were weighed weekly and data are presented as Mean±SEM from 9-12 mice per group. Mice were monitored for overt disease, rectal prolapse, and moribund animals were humanely killed;
Mice with a deletion in the IL10^−−/−− gene spontaneously develop chronic colitis, with the age of onset and the severity of the disease being dependent on background mouse strain and the conditions in which the animals are housed. The onset of colitis in IL10^−−/−− mice housed under the conditions used in this study was also strain dependent, with an earlier onset and greater severity, in terms of mortality, in BALB/c strain mice relative to C57BL/6 strain animals. In this experiment, animals received oral treatment on a MWF regime over 9 weeks. Initially, both groups of mice progressively gain weight (FIG. 15). […] By week 9 animals had marked weight loss, with one moribund animal humanely killed on day 60 in each group. As other mice were losing weight and developing clinical symptoms of disease, both groups were culled at week 9 (day 63) and analysed.

[4] = Solubility in water and buffers; type: physicochemical
Method: The sodium salt, potassium salt, calcium salt, α-methylbenzylamine salt and N-Methyl-(D)-Glucamine salt were synthesised. The sodium and calcium salt were unsuccessful. The three salts of compound 5, named potassium salt, α-methylbenzylamine salt and N-Methyl-(D)-Glucamine salt were used for solubility and partition coefficient (log P) studies.
The solubility of the four compounds were determined: […]

5% DSS murine colitis [5] = experiment: DSS murine colitis, Experiment 2 (Method 2); type: in vivo, BDF1 male mice; settings: 10 ml/kg oral gavage daily day 0-6, 5-ASA 100 mg/kg; for DAI at day 7 in comparison with vehicle: 31 at 2 mg/ml, 47 at 4 mg/ml
Method: A total of 90 BDF1 (H. pylori-free, murine norovirus-free) male mice (Harlan Laboratories, UK) were used in the study. Animals were 8-10 weeks old on supply and used at 10-12 weeks of age. All mice were held in individually ventilated cages (IVCs) in an SPF (Specific Pathogen Free) barrier unit. The animals were identified by numbered cages and by ear punches.
DSS (MP Biomedicals 0216011090, lot# M2709) was prepared as a 5% (w/v) solution in the drinking water and made fresh daily on days 0 to 6 inclusive. DSS was administered from day 0 to day 7.
Test items were stored at −20° C. until the initiation of the study. Each test item was formulated as a homogenous suspension in 0.5% carboxymethyl cellulose (CMC, Sigma C4888) in sterile water (Sigma W3500, lot# RNBC1419), using an Ultraturax homogeniser, on study day −1. Compound 31 was formulated at 2 mg/ml and 47 was formulated at 4 mg/ml. After formulation the test item and the vehicle stocks anonymised with a letter code. All solutions were stored at 4° C. during the study, with 3.8 ml of each suspension being dispensed daily. Test items were administered by oral gavage, daily at 09.00 hrs, at 10 ml/kg, from study day 0 to study day 6.
5-ASA (5-Aminosalicylic acid, Sigma A3537, lot#051M1878V) was aliquoted into preweighed amounts between 71 and 84 mg. Like test item suspensions, these aliquots were anonymised by a letter code. Individual aliquots were formulated as a 10 mg/ml suspension in 0.5% CMC (Sigma C4888) in sterile water (Sigma W3500, lot# RNBC1419) on each day of dosing. 5-ASA was administered by oral gavage, daily at 09.00 hrs, at 10 ml/kg to give a dose of 100 mg/kg, from study day 0 to study day 6. 2.5 Clinical examinations
Any animal was culled if the weight loss was greater than 20%. Animal well-being was monitored daily. Once daily from day 0 until the end of the study, all mice were weighed and assessed for stool consistency, and the presence of overt blood in the stool or around the anus according to the criteria in 2.1
At necropsy, observation of stool in the large bowel was used to supplement in-life observation. […]

[6] = compound 6 10 and 30 mg/kg groups, Prednisolone 5 mg/kg
[7] = compound 6 30 mg/kg, Prednisolone 5 mg/kg

O=C(O)c1ccc(C[C@@]2(C3=Cc4ccccc4C3)Cc3ccccc3[C@H]2O)cc1 [Compound 6, 6-(Methylamino)hexane-1,2,3,4,5-pentanol 4-(((1S,2S)-1-hydroxy-2,3-dihydro-1H,1′H-2,2′-biinden-2-yl)methyl)benzoate]
Acid Log10 POW [1]: 2.6 | Basic Log10 POW [1]: 4.3 | Neutral Log10 POW [1]: 3.5 | inhibition of colon shortening (colon length) versus vehicle, day 7 (5% DSS murine colitis [2]; 3 mg/kg): did not have a significant effect | therapeutic efficacy in the DSS model (5% DSS murine colitis [2]; compound 6 30 mg/Kg versus prednisolone 5 mg/Kg): comparable, or better, efficacy relative to prednisolone | colon length compared with Prednisolone, day 7 (5% DSS murine colitis [2]; compound 6 30 mg/kg, P<0.05): significantly better than Prednisolone | DAI on the day of autopsy versus vehicle controls (5% DSS murine colitis [2]; Prednisolone 5 mg/kg): significantly (P<0.05-P<0.01) lower DAI than vehicle controls | inhibition of colon shortening (colon length) versus vehicle, day 7 (5% DSS murine colitis [2]; [6]): did have a significant effect | colon pathology (histology scores) relative to vehicle (5% DSS murine colitis [2]): dose-dependent and highly statistically significant reduction | colon IL1β level (5% DSS murine colitis [2]; [7]): significant (P<0.05, 30 mg/kg) and dose-dependant reduction | colon IL6 level (5% DSS murine colitis [2]; [7]): significant (P<0.05, 30 mg/kg) and dose-dependant reduction | colon TNFα level (5% DSS murine colitis [2]; [7]): significant (P<0.05, 30 mg/kg) and dose-dependant reduction | overt reactions in mice (5% DSS murine colitis [2]; oral daily for 7 days, 3, 10 and 30 mg/Kg): no overt reactions | survival over the 9 weeks, Kaplan-Meier analysis versus vehicle [3]: no statistical difference in survival | weight gain ([3]; vehicle stopped gaining weight from week 5): maintained weight gain until week 8 | Serum Amyloid A (SAA) levels relative to vehicle ([3]; week 9): significantly (P<0.05; Student's t-test) reduced | extent of colon pathology (histology score) relative to vehicle ([3]; week 9): significantly reduced

O=C(O)c1ccc(C[C@@]2(C3=Cc4ccccc4C3)Cc3ccccc3[C@H]2O)cc1 (single isomer, unassigned) [Compound 2]
activity in 5% DSS murine colitis model (5% DSS murine colitis [2]; 30 mg/kg p.o. daily for 7 days): highly active

CNCC(O)C(O)C(O)C(O)CO.O=C(O)c1ccc(C[C@]2(C3=Cc4ccccc4C3)Cc3ccccc3[C@H]2O)cc1 [Compound 7, 6-(Methylamino)hexane-1,2,3,4,5-pentanol 4-(((1S,2R)-1-hydroxy-2,3-dihydro-1H,1′H-2,2′-biinden-2-yl)methyl)benzoate]
Acid Log10 POW [1]: 3.8 | Basic Log10 POW [1]: 3.5 | Neutral Log10 POW [1]: 3.5 | DAI at day 7 (5% DSS murine colitis [2]): no significant (P>0.05) effect | solubility, Milli-RO H20 ([4]; Milli-RO water, listed as Compound 5 N-Methyl-D-Glucamine salt): >60,000* μg/mL | solubility, pH 4.0 Buffer ([4]; pH 4.0 buffer): 0.14 μg/mL | solubility, pH 7.0 Buffer ([4]; pH 7.0 buffer, listed as Compound 5 N-Methyl-D-Glucamine salt): >60,000* μg/mL | solubility, pH 9.0 Buffer ([4]; pH 9.0 buffer, listed as Compound 5 N-Methyl-D-Glucamine salt): >60,000* μg/mL

O=C(O)c1ccc(C[C@]2(C3=Cc4ccccc4C3)Cc3ccccc3[C@@H]2O)cc1 (single isomer, unassigned) [Compound 3]
DAI at day 6 versus vehicle (5% DSS murine colitis [2]; 30 mg/kg p.o.): no statistical (P>0.05) difference | activity in 5% DSS murine colitis model (5% DSS murine colitis [2]; 30 mg/kg p.o. daily for 7 days): minimal activity

O=C(Nc1ccc(O)c(C(=O)O)c1)c1ccc(C[C@@]2(C3=Cc4ccccc4C3)Cc3ccccc3[C@H]2O)cc1 [Compound 47, 2-hydroxy-5-(4-(((1S,2S)-1-hydroxy-2,3-dihydro-1H,1′H-[2,2′-biinden]-2-yl)methyl)benzamido)benzoic acid]
DAI at day 7 in comparison with vehicle (5% DSS murine colitis [5]): reduced DAI comparable or equal to 5ASA | loss of body weight at day 7 in comparison with vehicle control (5% DSS murine colitis [5]; 47 formulated at 4 mg/ml): does not result in an increase in loss of body weight

NCC(=O)O[C@@H]1c2ccccc2C[C@@]1(Cc1ccc(C(=O)O)cc1)C1=Cc2ccccc2C1 [Compound 31, 4-{[(1′S,2′S)-1′-(glycyloxy)-1′,3′-dihydro-1H,2′H-2,2′-biinden-2′-yl]methyl}benzoic acid]
DAI at day 7 in comparison with vehicle (5% DSS murine colitis [5]): reduced DAI comparable or equal to 5ASA

O=C(O)c1ccc(C[C@@]2(C3=Cc4ccccc4C3)Cc3ccccc3[C@@H]2O)cc1 [Compound 4, 4-(((1R,2S)-1-hydroxy-2,3-dihydro-1H,1′H-2,2′-biinden-2-yl)methyl)benzoic acid]
activity in 5% DSS murine colitis model (5% DSS murine colitis [2]; 30 mg/kg p.o. daily for 7 days): almost devoid of activity | disease activity index (DAI) at day 7 (5% DSS murine colitis [2]; 30 mg/kg p.o. daily for 7 days, vehicle controls 9.0±0.53): without activity

C[C@]12C=CC(=O)C=C1CC[C@@H]1[C@@H]2[C@@H](O)C[C@@]2(C)[C@H]1CC[C@]2(O)C(=O)CO [Prednisolone, reference compound]
DAI on the day of autopsy versus vehicle controls (5% DSS murine colitis [2]; Prednisolone 5 mg/kg): significantly (P<0.01; ANOVA; Dunnett Multiple Comparison Test) reduced DAI scores | inhibition of colon shortening (colon length) versus vehicle, day 7 (5% DSS murine colitis [2]; [6]): did have a significant effect | colon pathology (histology scores) relative to vehicle (5% DSS murine colitis [2]): no significant improvement | colon IL1β level (5% DSS murine colitis [2]; [7]): reduced (p<0.05) | colon IL6 level (5% DSS murine colitis [2]; [7]): reduced (p<0.05) | colon TNFα level (5% DSS murine colitis [2]; [7]): reduced (p<0.05)

O=C(O)c1ccc(C[C@]2(C3=Cc4ccccc4C3)Cc3ccccc3[C@H]2O)cc1 [Compound 5, 4-(((1S,2R)-1-hydroxy-2,3-dihydro-1H,1′H-2,2′-biinden-2-yl)methyl)benzoic acid]
Acid Log10 POW [1]: 3.9 | Basic Log10 POW [1]: 3.7 | Neutral Log10 POW [1]: 3.7 | DAI at day 7 (5% DSS murine colitis [2]): no significant (P>0.05) effect | activity in 5% DSS murine colitis model (5% DSS murine colitis [2]; 30 mg/kg p.o. daily for 7 days): highly active
